According to patent US20080260774A1, “Alpha-galactosyl ceramide analogs and their use as immunotherapies” (priority 2007, published 2008):

Columns and labels:
[1] = tested on: BALB/c mice; assay: Mouse serum cytokines/chemokines after IV, SubQ or IM injection; type: in vivo
[2] = tested on: FLU-A virus serotype H1N1 (WSN); assay: Cytopathetic effect / virus titer in MDCK cells infected with H1N1 (WSN); type: cell-based
Procedure: FIG. 60(A-B) show the cytopathetic effect (CPE) of Madin-Darby canine kidney (MDCK) cells in vitro. MDCK cells were pretreated with vehicle, α-GalCer or one of the α-GalCer analogs C13, C14 or C16 at 10 μg/ml for four hours, followed by infection with FLU-A virus serotype H1N1 (WSN) at 10TCID50.
BALB/c mice were treated via intranasal route with control, α-GalCer (C1) or the α-GalCer analogs C13, C14 or C16 at one hour prior to virus challenge with H1N1 (WSN). […] In general, certain α-GalCer analogs may exert direct anti-viral effects, or act indirectly via immune stimulation. […] MDCK cells were pretreated with vehicle, α-GalCer or one of the α-GalCer analogs C13, C14 or C16 at 10 μg/ml for four hours, followed by infection with FLU-A virus serotype H1N1 (WSN) at 10TCID50.

[3] = tested on: syngeneic breast cancer (4T1); assay: Breast cancer model in mice (4T1, SubQ inoculation); type: in vivo, mouse; conditions: SubQ delivery
[4] = tested on: H5 of avian influenza viruses (pHA); type: in vivo, mouse; conditions: mouse, in vivo
[5] = tested on: syngeneic lung cancer (TC1) cells; assay: Lung cancer model in mice (TC1, IV inoculation); type: in vivo, mouse; conditions: IV administration
[6] = tested on: human naïve NKTs (CD161^+CD3^+); assay: Cytokine/chemokine secretion by human naïve CD161+CD3+ NKTs co-cultured with autologous immature CD14+ DCs; type: cell-based
[7] = tested on: naïve CD161^+/CD3^+ NKTs; assay: Human NKT TCR activation (phosphoproteins), glycolipid presented by HeLa, HeLa-CD1d or iDCs, 10 μg/ml; type: cell-based; conditions: for intracellular phospho-CD3ε / phospho-CREB / phospho-ERK1/2: 10 μg/ml
[8] = tested on: FLU-A virus serotype H1N1 (WSN); assay: Influenza virus H1N1 (WSN) infection in BALB/c mice; conditions: mouse, in vivo
[9] = tested on: human monocyte-derived DCs; assay: Maturation of human monocyte-derived dendritic cells
[10] = tested on: BALB/c mice; assay: Expansion/activation of mouse splenocyte subpopulations 72 h after injection; type: in vivo
[11] = tested on: Sphingomonas capsulata; assay: Antibacterial efficacy in Sphingomonas capsulata infected mice; type: in vivo, mouse; conditions: 50 μg/kg
Source text: Sphingomonas capsulata is a common environmental bacterial strain that is found in many places such as the air and water. It can be easily identified on nutrient agar plates because of its yellow colony color. […] Since the antibacterial activities of glycolipid antigens are mediated through the activation of NKT cells by glycolipid bound-CD1-d molecules, evaluation of the antibacterial efficacies using the disease model of Sphingomonas capsulata infection will focus on the impact of the NKT mediated pathway that is activated by glycolipid bindings. Six to eight week old female C57BL/6 mice were injected IP with Sphingomonas capsulate cells. […] Twenty-four hours after bacterial infection, livers were removed from mice and homogenized. Colony formation units (CFU) of Sphingomonas capsulate in liver homogenates were determined by plating diluted samples on nutrient plates. Colonies were counted after incubation for 48 hours at 37° C. […] To confirm the antibacterial efficacies of these α-GalCer analogs, another study was conducted to repeat the study by treating infected mice with 50 μg/kg in the same disease model. […] Six to eight week old female C57BL/6 mice were injected IP with 5×10^8 Sphingomonas capsulate cells. Mice were grouped into treatment and control groups with 4-6 mice per group. Four hours after the infection, mice in the treatment group were injected IP with testing α-GalCer analogs at 50 or 100 μg/kg, and the control group mice were injected with same volumes of PBS. Twenty-four hours after bacterial infection, mice from all groups were sacrificed. Livers were removed from mice and homogenized in 0.9% NaCl, 0.02% Tween 80 using tissue homogenizers. Colony formation units (CFU) of Sphingomonas capsulate in liver homogenates were determined by plating diluted samples on nutrient plates. Colonies were counted after incubation for 48 hours at 37° C.

[12] = tested on: B16 melanoma; assay: Tumor infiltrating lymphocytes in B16 melanoma by flow cytometry; type: in vivo; conditions: day 21; 0.1 μg/mouse, once/week; normalized to DMSO
[13] = tested on: C57BL/6 mice; assay: Expansion of NKT subsets in spleens of C57BL/6 mice; type: in vivo; conditions: C57BL/6 Wt, 72 h post IV injection, 0.1 μg per mouse
[14] = tested on: TC1 tumor; assay: Tumor infiltrating lymphocytes in lung cancer (TC1) by flow cytometry; type: in vivo; conditions: day 21; 0.1 μg/mouse, once/week; normalized to DMSO

With `CCCCCCCCCCCCCCCCCCCCCCCCCC(=O)N[C@@H](CO[C@H]1O[C@H](CO)[C@H](O)[C@H](O)[C@H]1O)[C@H](O)[C@H](O)CCc1ccccc1` [C13] the “IFN-γ/IL-4 ratio (TH1/TH2 bias)” value ([1]; 2 hours, IV route, compared with C1) was “less TH2 responses than C1”, the “serum IL-2, IL-12, MIP-1β and MCP-1” value ([1]; IV administration) was “striking rises in IL-2, IL-12, MIP-1β and MCP-1” and the “entry/replication of H1N1 virus (virus titer)” value [2] was “slight inhibition of the entry/replication of H1N1 virus in vitro”. The “effects on survival compared with C1” value [3] was “did not differ significantly from that of C1”, the “suppression of tumor size compared with C1” value [3] was “significantly greater suppression of tumor size than C1” and the “tumor growth and survival compared to control” value [3] was “able to suppress tumor growth and prolong survival as compared to control”. For the same compound, the “adjuvant activities in enhancing the anti-HAc antibody titer” value [4] was “better adjuvant activities than the others in enhancing the antibody titer”, the effectiveness as adjuvant [4] was “particularly effective as adjuvants” and the “anti-cancer efficacy compared with C1” value [5] was “significantly greater anti-cancer efficacy than C1”. For the same compound, the “secretion of IFN-γ” value ([6]; 10 μg/ml, 18 hour culture, compared with α-GalCer) was “significantly greater secretion of IFN-γ than α-GalCer”, the induction of chemokines ([6]; compared with α-GalCer) was “striking increase in chemokines such as MIP-11, MCP-1, and IL-8” and the “IFN/IL-4 ratio (TH1/TH2 bias)” value ([6]; normalized to DMSO control) was “more TH1-biased”. For the same compound, the TCR activation ([7]; CD1d-dependent, HeLa-CD1d or DCs) was “stronger in TCR activation than compounds C1 and C17”, the “intracellular phospho-CD3ε” value ([7]; presented by DCs) was 17.3 folds and the phospho-CREB ([7]; presented by DCs) was 158 folds increase. The “intracellular phospho-CD3ε” value ([7]; presented by HeLa-CD1d cells) was 7.3 folds of control, the phospho-CREB ([7]; presented by HeLa-CD1d cells) was 41 folds expression and the phospho-ERK1/2 ([7]; with DCs) was 35 folds. For the same compound, the phospho-ERK1/2 ([7]; with HeLa-CD1d cells) was 6.6 folds increase, the “cumulative proportion of survival” value [8] was “prolonged survival” and the survival [8] was “significantly enhanced survival”. For the same compound, the “maturation of human monocyte-derived DCs” value [9] was “promotes maturation of human monocyte-derived DCs”, the “total and mature DCs” value ([10]; FIGS. 26B, 28B and 30B, compared with C1) was “significantly greater rises in total and mature DCs than C1” and the “CD8^+/CD4^+ ratio” value ([10]; FIGS. 26H, 28H and 30H) was “more potent than C1”. The splenocyte expansion ([10]; IM administration, 72 hours) was “greater effects than C1”, the expansion of splenocytes ([10]; IV administration, 72 hours) was “greater potency than C1” and the “CD4^+ T cells” value ([10]; SubQ route) was “more active over control”. For the same compound, the “CD8^+ T cells” value ([10]; SubQ route) was “more activity than C1”, the B cell expansion/activation ([10]; mouse, in vivo) was “significant activities” and the “CD8^+ T cell expansion/activation” value ([10]; mouse, in vivo) was “more active than C1”. The “NK and NKT expansion/activation” value ([10]; mouse, in vivo) was “comparable activities as C1” and the “expansion/activation of NKs and NKTs” value ([10]; mouse, in vivo) was “best capacity for expansion/activation of NKs and NKTs”.
In the case of `CCCCCCCCCCCCCC[C@@H](O)[C@@H](O)[C@H](CO[C@H]1O[C@H](CO)[C@H](O)[C@H](O)[C@H]1O)NC(=O)CCCCCCCCCCc1ccc(-c2ccc(F)cc2)cc1` [C30], the “CFU numbers (in lungs)” value [11] is reported as “significant in comparison to the untreated group”, the “number of tumor infiltrating lymphocytes (CD3+ T, CD8 T, NKs, NKTs)” value [12] is reported as “significantly significant increase in the number of TH1-biased tumor infiltrating lymphocytes in melanoma, as compared with both control and α-GalCer” and the “total number of NKTs and its two subtypes NKT1 and NKT2” value [13] is reported as “increase of total number of NKTs”. The “number of tumor infiltrating lymphocytes (CD3+ T, CD8 T, NKs, NKTs)” value [14] was “significantly significant increase in the number of TH1-biased tumor infiltrating lymphocytes in lung cancer, as compared with both control and α-GalCer”.
